The first data set addresses T1, malonyl-CoA decarboxylase prepared from rat heart (Rattus norvegicus, UniProt Q920F5).
T1 construct: malonyl-CoA decarboxylase prepared from rat heart; from tissue; host or cells: rat heart
T1 sequence (Q920F5 39-492): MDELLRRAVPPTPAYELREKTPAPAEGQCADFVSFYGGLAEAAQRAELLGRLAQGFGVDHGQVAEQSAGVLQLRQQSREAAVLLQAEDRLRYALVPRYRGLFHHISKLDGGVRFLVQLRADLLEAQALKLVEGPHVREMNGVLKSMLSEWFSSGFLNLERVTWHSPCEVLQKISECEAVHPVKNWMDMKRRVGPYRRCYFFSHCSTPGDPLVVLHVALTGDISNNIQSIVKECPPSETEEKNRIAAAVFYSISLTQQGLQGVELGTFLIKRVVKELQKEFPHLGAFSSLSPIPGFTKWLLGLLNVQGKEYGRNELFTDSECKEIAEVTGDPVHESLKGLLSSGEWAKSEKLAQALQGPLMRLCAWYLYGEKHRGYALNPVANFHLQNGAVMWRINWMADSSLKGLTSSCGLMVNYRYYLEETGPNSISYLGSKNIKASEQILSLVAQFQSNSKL
The data set can be described thus: In vitro MCD inhibitory assay (spectrophotometric, 96 well). In kind it is biochemical. The following applies: concentration causing 50% inhibition of MCD activity, read-out: IC50 of the MCD inhibitors. How it is done: The following reagents are added into a 96 well titer plate: Tris-HCl buffer, 20 μL; DTE, 10 μL; I-malate, 20 μL; NAD, 10 μL; NADH, 25 μL; water, 80 μL; malic dehydrogenase, 5 μL. The contents are mixed and incubated for 2 min followed by the addition of 5 μL of citrate synthase.
`O=C(N1CCOCC1)N(CCCCc1nnn[nH]1)c1ccc(C(O)(C(F)(F)F)C(F)(F)F)cc1` [Example 4-114]: the IC50 (commonly the concentration at which inhibition is half-maximal) turned out to be 10 nM. `O=S(=O)(Nc1ccc(C(O)(C(F)(F)F)C(F)(F)F)cc1)N1CCCCC1` [Example 2-5]: the IC50 was determined as 604 nM. `O=C(N1CCOCC1)N(CCCF)c1ccc(C(O)(C(F)(F)F)C(F)(F)F)cc1` [Example 4-130]: the IC50 worked out at 36 nM. As for `Cc1cc(-c2ccncc2)n(-c2ccc(C(O)(C(F)(F)F)C(F)(F)F)cc2)n1` [Example 8-28], the IC50 was 223 nM. Same read-out and setting: the same measure for `OC(c1ccc(-n2nc(-c3ccccn3)cc2-c2ccccn2)cc1)(C(F)(F)F)C(F)(F)F` [Example 8-4]: 557 nM; for `CCN(CCC#N)C(=O)N(CCCCC(=O)O)c1ccc(C(O)(C(F)(F)F)C(F)(F)F)cc1` [Example 4-94]: 9 nM.

With `N#Cc1cccc(CS(=O)(=O)c2nccn2-c2ccc(C(O)(C(F)(F)F)C(F)(F)F)cc2)c1` [Example 6-1], the IC50 is 18 nM. Regarding `O=C(O)CCCCN(C(=O)c1ccncc1)c1ccc(C(O)(C(F)(F)F)C(F)(F)F)cc1` [Example 1-3], the IC50 stood at 7 nM.

System in a further data set: not given
Experiment: not given
Conditions: not given
Take `O=C(NCc1ccccc1)Nc1ccc(C(O)(C(F)(F)F)C(F)(F)F)cc1` [Example 3, N-benzyl-N′-{4-[2,2,2-trifluoro-1-hydroxy-1-(trifluoromethyl)ethyl]phenyl}urea]: the melting point (in general, the temperature, or range, at which the solid turns liquid) was 163 to 164 °C (dec.).

Another data set deals with human breast cancer cells.
Experiment: not given
The following applies: breast carcinoma cells; Pizer et al.; cited from earlier work.
Take `CCCCCCCCCCCCCCOc1ccc(C(=O)O)o1` [TOFA, 5-(tetradecyloxy)-2-furoic acid]: the “malonyl-CoA level, of the control” value is listed as 60%.

Values taken from patent publication US7385063B2, “Method for preparing imidazole derivatives” (Chugai Seiyaku Kabushiki Kaisha, priority 2001, dated 2008).
